Experimental data from US20260284165A1, “COMPOSITIONS AND METHODS FOR TREATMENT OR P[…] OF CANCER INCLUDING TRIPLE NEGATIVE BREAST CANCER AND/OR LUNG CANCER” (The Medical College of Wisconsin, Inc., priority 2023, published 2026).

system: splenocytes; experiment: IFNγ ELISPOT in splenocytes, cyclin E2 and KIF15 epitopes; format: cell-based, mice; conditions: after four immunizations
Text: We developed both cyclin E2 and KIF15 MHC-II vaccines using the multi-scoring system to identify immunogenic epitopes (Table 4). […] This multi-antigen preventive vaccine should also help overcome antigen-negative variant escape that has been observed with single antigen vaccines. Currently, a mRNA vaccine is also in development that contains the epitopes of TOP2A, cyclin E2 or KIF15 and will test its efficacy and immune response in relevant preclinical animal models.

Sequence	type I immunity (IFNγ ELISPOT)
VVKSTSPVKLKTFKK [p334]	elicited type I immunity
SHNLRGVIPRSFEYL [p129]	elicited type I immunity
AAALCHFTSIEVVKK [p298]	elicited type I immunity
